Test results reported in patent publication US8829007B2 (priority 2009, dated 2014).
Read-outs that look alike come from different tables or passages of the source.

Tests used:
[1] = system: influenza A virus (A/PR/8/34); experiment: microbe, parasite or virus in culture; format: cell-based
[2] = system: A/PR/8/34 influenza virus; experiment: microbe, parasite or virus in culture; format: cell-based
[3] = Influenza A virus, PR/8, MDCK, MDCK cells infected with A/PR/8/34, survival of infected cells, class symbols, read-out: IC50 (mean all)
[4] = Influenza A virus, PR/8, MDCK, MDCK cells infected with A/PR/8/34, replication of influenza virus (viral RNA, bDNA), class symbols, read-out: EC50 (mean all)
[5] = Influenza A virus, PR/8, MDCK, CPE assay, A/PR/8/34 infected MDCK cells, class symbols, read-out: IC50 (mean all)
[6] = Influenza A virus, PR/8, MDCK, bDNA assay, A/PR/8/34 influenza virus replication in MDCK cells, class symbols, read-out: EC50 (mean all)
[7] = Influenza A virus, PR/8, MDCK, MDCK cells infected with A/PR/8/34, cell protection (CPE), read-out: IC50 (mean all)
[8] = Influenza A virus, PR/8, MDCK, MDCK cells infected with A/PR/8/34, bDNA viral RNA, read-out: EC50 (mean all)
[9] = Influenza A virus, PR/8, MDCK, mean all, A/PR/8/34 infected MDCK cells, CPE assay, read-out: IC50
[10] = Influenza A virus, PR/8, MDCK, mean all, A/PR/8/34 influenza virus in MDCK cells, bDNA assay, read-out: EC50
[11] = mean all, MDCK cells infected with A/PR/8/34, cell protection (CPE), read-out: IC50
[12] = mean all, bDNA viral RNA in MDCK cells infected with A/PR/8/34, read-out: EC50

CS(=O)(=O)N1CCOCC1CNc1nc(-c2c[nH]c3ncc(Cl)cc23)ncc1F (centres unmarked) [Compound 532, 2-(5-chloro-1H-pyrrolo[2,3-b]pyridin-3-yl)-5-fluoro-N-((4-(methylsulfonyl)morpholin-3-yl)methyl)pyrimidin-4-amine]
IC50 [1, 3]: 5 to 20 µM
EC50 [2, 4]: < 5 µM

O=C(N[C@@H]1CCC[C@H](Nc2nc(-c3c[nH]c4ncc(Cl)cc34)ncc2F)C1)OCC1CCOC1 (some centres unmarked) [Compound 648]
IC50 [1, 5]: < 5 µM
EC50 [2, 6]: < 5 µM

COc1ccc(C(=O)N2CCC[C@H](CNc3nc(-c4c[nH]c5ncc(Cl)cc45)ncc3F)C2)c(OC)c1 [Compound 154, (R)-(3-((2-(5-chloro-1H-pyrrolo[2,3-b]pyridin-3-yl)-5-fluoropyrimidin-4-ylamino)methyl)piperidin-1-yl)(2,4-dimethoxyphenyl)methanone]
IC50 [1, 7]: 5 to 20 µM
EC50 [2, 8]: < 5 µM

CCS(=O)(=O)N1CCC[C@@H](Nc2nc(-c3c[nH]c4ncc(Cl)cc34)ncc2F)C1 [Compound 321, (R)-2-(5-chloro-1H-pyrrolo[2,3-b]pyridin-3-yl)-N-(1-(ethylsulfonyl)piperidin-3-yl)-5-fluoropyrimidin-4-amine]
IC50 [1, 9]: 5 to 20 µM
EC50 [2, 10]: < 5 µM

O=C1NCCOCC1Nc1nc(-c2c[nH]c3ncc(Cl)cc23)ncc1F (centres unmarked) [Compound 513, 6-(2-(5-chloro-1H-pyrrolo[2,3-b]pyridin-3-yl)-5-fluoropyrimidin-4-ylamino)-1,4-oxazepan-5-one]
IC50 [1, 3]: 5 to 20 µM
EC50 [2, 4]: < 5 µM

COc1cccc(NC(=O)N2CCC[C@H](CNc3nc(-c4c[nH]c5ncc(Cl)cc45)ncc3F)C2)c1 [Compound 76, (R)-3-((2-(5-chloro-1H-pyrrolo[2,3-b]pyridin-3-yl)-5-fluoropyrimidin-4-ylamino)methyl)-N-(3-methoxyphenyl)piperidine-1-carboxamide]
IC50 [1, 7]: < 5 µM
EC50 [2, 8]: < 5 µM

Nc1nc(-c2c[nH]c3ncc(Cl)cc23)nc(NC2CCCCC2C(=O)O)c1F (centres unmarked) [Compound 674]
IC50 [1, 11]: < 5 µM
EC50 [2, 12]: < 5 µM

O=C(C1CCCCO1)N1CCCC(Nc2nc(-c3c[nH]c4ncc(Cl)cc34)ncc2F)C1 (centres unmarked) [Compound 658]
IC50 ([1]; CPE assay, A/PR/8/34 infected MDCK cells, class symbols, read-out: IC50 (mean all)): < 5 µM
EC50 ([2]; bDNA assay, A/PR/8/34 influenza virus replication in MDCK cells, class symbols, read-out: EC50 (mean all)): < 5 µM

O=C(c1cc2ccccc2s1)N1CCC[C@H](CNc2nc(-c3c[nH]c4ncc(Cl)cc34)ncc2F)C1 [Compound 107, (R)-benzo[b]thiophen-2-yl(3-((2-(5-chloro-1H-pyrrolo[2,3-b]pyridin-3-yl)-5-fluoropyrimidin-4-ylamino)methyl)piperidin-1-yl)methanone]
IC50 [1, 7]: < 5 µM
EC50 [2, 8]: < 5 µM

NC(=O)CN1CCC[C@H](Nc2nc(-c3c[nH]c4ncc(Cl)cc34)ncc2F)C1 [Compound 567]
IC50 [1, 3]: < 5 µM
EC50 [2, 4]: < 5 µM

O=S(=O)(c1ccccc1F)N1CCC[C@H](CNc2nc(-c3c[nH]c4ncc(Cl)cc34)ncc2F)C1 [Compound 90, (R)-2-(5-chloro-1H-pyrrolo[2,3-b]pyridin-3-yl)-5-fluoro-N-((1-(2-fluorophenylsulfonyl)piperidin-3-yl)methyl)pyrimidin-4-amine]
IC50 [1, 7]: < 5 µM
EC50 [2, 8]: < 5 µM

O=C(c1ccc(F)c(F)c1)N1CCC[C@H](CNc2nc(-c3c[nH]c4ncc(Cl)cc34)ncc2F)C1 [Compound 85, (R)-(3-((2-(5-chloro-1H-pyrrolo[2,3-b]pyridin-3-yl)-5-fluoropyrimidin-4-ylamino)methyl)piperidin-1-yl)(3,4-difluorophenyl)methanone]
IC50 [1, 7]: 5 to 20 µM
EC50 [2, 8]: < 5 µM

CCC(=O)N1CCC[C@@H](CNc2nc(-c3c[nH]c4ncc(Cl)cc34)ncc2F)C1 [Compound 32, (S)-1-(3-((2-(5-chloro-1H-pyrrolo[2,3-b]pyridin-3-yl)-5-fluoropyrimidin-4-ylamino)methyl)piperidin-1-yl)propan-1-one]
IC50 [1, 7]: < 5 µM
EC50 [2, 8]: < 5 µM

O=S(=O)(C1CC1)N1CCC[C@H](Nc2nc(-c3c[nH]c4ncc(Cl)cc34)ncc2F)C1 [Compound 391, (S)-2-(5-chloro-1H-pyrrolo[2,3-b]pyridin-3-yl)-N-(1-(cyclopropylsulfonyl)piperidin-3-yl)-5-fluoropyrimidin-4-amine]
IC50 [1, 9]: < 5 µM
EC50 [2, 10]: < 5 µM

CC(=O)N1CCC[C@H](CNc2nc(-c3c[nH]c4ncc(Cl)cc34)ncc2F)C1 [Compound 111, (R)-1-(3-((2-(5-chloro-1H-pyrrolo[2,3-b]pyridin-3-yl)-5-fluoropyrimidin-4-ylamino)methyl)piperidin-1-yl)ethanone]
IC50 [1, 7]: < 5 µM
EC50 [2, 8]: < 5 µM

OC[C@H]1CC(Nc2nc(-c3c[nH]c4ncc(Cl)cc34)ncc2F)[C@H](O)[C@@H]1O (some centres unmarked) [Compound 657]
IC50 [1, 5]: > 10 µM
EC50 [2, 6]: > 3.3 µM

O=C(CCc1ccccc1)N1CCCC[C@@H]1CNc1nc(-c2c[nH]c3ncc(Cl)cc23)ncc1F [Compound 293, (R)-1-(2-((2-(5-chloro-1H-pyrrolo[2,3-b]pyridin-3-yl)-5-fluoropyrimidin-4-ylamino)methyl)piperidin-1-yl)-3-phenylpropan-1-one]
IC50 [1, 7]: < 5 µM
EC50 [2, 8]: < 5 µM

CC1(O)CCC[C@H](Nc2nc(-c3c[nH]c4ncc(Cl)cc34)ncc2F)C1 (some centres unmarked) [Compound 571]
IC50 ([1]; MDCK cells infected with A/PR/8/34, survival of infected cells, class symbols, read-out: IC50 (mean all)): < 5 µM
EC50 ([2]; MDCK cells infected with A/PR/8/34, replication of influenza virus (viral RNA, bDNA), class symbols, read-out: EC50 (mean all)): < 5 µM

O=C(Cc1cccs1)N1CCC[C@H](CNc2nc(-c3c[nH]c4ncc(Cl)cc34)ncc2F)C1 [Compound 104, (R)-1-(3-((2-(5-chloro-1H-pyrrolo[2,3-b]pyridin-3-yl)-5-fluoropyrimidin-4-ylamino)methyl)piperidin-1-yl)-2-(thiophen-2-yl)ethanone]
IC50 [1, 7]: < 5 µM
EC50 [2, 8]: < 5 µM

O[C@H]1[C@H](O)CCC[C@H]1Nc1nc(-c2c[nH]c3ncc(Cl)cc23)ncc1F [Compound 616]
IC50 [1, 5]: > 10 µM
EC50 [2, 6]: > 3.3 µM

C#CCOC(=O)N1CCC[C@H](CNc2nc(-c3c[nH]c4ncc(Cl)cc34)ncc2F)C1 [Compound 122, (R)-prop-2-ynyl 3-((2-(5-chloro-1H-pyrrolo[2,3-b]pyridin-3-yl)-5-fluoropyrimidin-4-ylamino)methyl)piperidine-1-carboxylate]
IC50 [1, 7]: < 5 µM
EC50 [2, 8]: < 5 µM

CC(C)(C(N)=O)N1CCC[C@H](Nc2nc(-c3c[nH]c4ncc(Cl)cc34)ncc2F)C1 [Compound 598]
IC50 [1, 5]: < 5 µM
EC50 [2, 6]: < 5 µM

CC(=O)N[C@H]1CCC[C@H](Nc2nc(-c3c[nH]c4ncc(Cl)cc34)ncc2F)C1.CC(N)=O (relative stereo) [Compound 457, N-[trans-3-[[2-(5-chloro-1H-pyrrolo[2,3-b]pyridin-3-yl)-5-fluoro-pyrimidin-4-yl]amino]cyclohexyl]acetamide acetamide]
IC50 [1, 9]: < 5 µM
EC50 [2, 10]: < 5 µM

CC#CCOC(=O)N1CCC[C@H](CNc2nc(-c3c[nH]c4ncc(Cl)cc34)ncc2F)C1 [Compound 127, (R)-but-2-ynyl 3-((2-(5-chloro-1H-pyrrolo[2,3-b]pyridin-3-yl)-5-fluoropyrimidin-4-ylamino)methyl)piperidine-1-carboxylate]
IC50 ([1]; Influenza A virus, PR/8, MDCK, read-out: IC50 (mean all)): < 5 µM
EC50 ([2]; Influenza A virus, PR/8, MDCK, read-out: EC50 (mean all)): < 5 µM

O=C(O)[C@@H]1CCC[C@H](Nc2nc(-c3c[nH]c4ncc(Cl)cc34)ncc2F)C1 [Compound 630]
IC50 [1, 5]: < 5 µM
EC50 [2, 6]: < 5 µM

CCNC(=O)OC1(C)CCCC(Nc2nc(-c3c[nH]c4ncc(Cl)cc34)ncc2F)C1 (single isomer, unassigned) [Compound 722]
IC50 [1, 11]: < 5 µM
EC50 [2, 12]: < 5 µM

OCC(O)C[C@@]1(O)CCCC(Nc2nc(-c3c[nH]c4ncc(Cl)cc34)ncc2F)C1 (some centres unmarked) [Compound 718]
IC50 ([1]; Influenza A virus, PR/8, MDCK, mean all, MDCK cells infected with A/PR/8/34, cell protection (CPE), read-out: IC50): < 5 µM
EC50 ([2]; Influenza A virus, PR/8, MDCK, mean all, bDNA viral RNA in MDCK cells infected with A/PR/8/34, read-out: EC50): < 5 µM

N#CCN1CCC[C@H](Nc2nc(-c3c[nH]c4ncc(Cl)cc34)ncc2F)C1 [Compound 669]
IC50 [1, 5]: < 5 µM
EC50 [2, 6]: < 5 µM

O=C(O)[C@H]1C2CCC(CC2)[C@@H]1Nc1nc(-c2c[nH]c3ncc(F)cc23)ncc1F [Compound 1070, (2S,3S)-3-((2-(5-fluoro-1H-pyrrolo[2,3-b]pyridin-3-yl)-5-fluoropyrimidin-4-yl)amino)bicyclo[2.2.2]octane-2-carboxylic acid]
IC50 ([1]; Influenza A virus, PR/8, MDCK, MDCK cells, A/PR/8/34, ATP readout, mean all, read-out: Cell Flu, MDCK protection, ATP (All: IC50: uM)(Mean (All))): < 5 µM
EC50 ([2]; Influenza A virus, PR/8, 30 h, HA(−) 30 hr, A/PR/8, bDNA, mean all, read-out: Cell Influenza HA(−) 30 hr A/PR/8 bDNA:bDNA EC50 uM(Mean (All))): < 5 µM

CNC(=O)N1CCCC(Nc2nc(-c3c[nH]c4ncc(Cl)cc34)ncc2F)CC1 (centres unmarked) [Compound 506, 4-(2-(5-chloro-1H-pyrrolo[2,3-b]pyridin-3-yl)-5-fluoropyrimidin-4-ylamino)-N-methylazepane-1-carboxamide]
IC50 [1, 3]: < 5 µM
EC50 [2, 4]: < 5 µM

Cc1cnc(-c2c[nH]c3ncc(Cl)cc23)nc1N[C@H]1CCCN(CC(N)=O)C1 [Compound 620]
IC50 [1, 5]: 5 to 20 µM
EC50 [2, 6]: < 5 µM
